According to paper PMC4766415 (Nature Communications, 2016):

Molecular target: WT-TTR (Homo sapiens, UniProt P02766)
Assay: TTR stabilization in urea, Trp fluorescence
Assay type: biochemical
Design: made in house; host or cells: Escherichia coli BL21(DE3), pET expression system
Details: 72 h; for WT-tetramer unfolded: WT-TTR 1.8 μM, 6.5 M urea, RT
Experimental: In urea, TTR tetramer dissociation precedes monomer unfolding, a process easily tracked by monitoring changes in intrinsic Trp fluorescence.
At high denaturant concentrations, the rate of TTR tetramer dissociation is linked irreversibly to monomer unfolding. […] Intrinsic fluorescence was recorded after 72 h.
Urea was added to attain a range of final concentrations (0–9 M) and the samples were incubated for 72 h at RT. Fluorescence intensity measurements were performed on a Jasco FP-8200 Spectrofluorometer. Trp fluorescence was obtained by exciting the samples at 280 nm and emission was collected from 300 to 400 nm. The fluorescence intensity ratio 355/335 nm was plotted against urea concentration as a sensor of folded protein, which for TTR in urea is equivalent to tetramer integrity. […] The fraction of unfolded TTR was measured and calculated as above. The TTR fluorescence after incubation at RT for 72 h in 9 M urea was considered to correspond to that of the unfolded state.

Structure (SMILES): Cc1ccc(C(=O)c2cc(O)c(O)c([N+](=O)[O-])c2)cc1 [tolcapone]
- WT-tetramer unfolded (2 molar equivalents): 33.8%
- WT-tetramer unfolded (4 molar equivalents): 8%
- TTR remaining in the native state (10 molar equivalents, 8 M urea): more than 80%
